The test system of test [1] is MOLM-13. As to the kind of experiment: Antiproliferative activity against human MOLM-13 cells assessed as inhibition of cell proliferation and measured after 7 days by CellTiter-Glo assay. The conditions noted are these: MOLM-13, 168 h. The format is functional, cell-based. (In general: ATP-based viability assays read luminescence as a measure of living cells.)
The subject of test [2] is Caov-3 cell line. As to the kind of experiment: Antiproliferative activity against human Caov-3 cell line assessed as inhibition of cell proliferation and measured after 7 days by CellTiter-Glo assay. To be noted: Caov-3, 168 h. The format is functional, cell-based.
Test [3] has as its system MOLM-13. As to the kind of experiment: Antiproliferative activity against human MOLM-13 cells assessed as inhibition of cell proliferation incubated for 96 hrs by Cell Titer-Glo reagent assay. The format is functional, cell-based. To be noted: MOLM-13, 96 h.
The target of test [4] is T1, METTL3/METTL14 (Homo sapiens, UniProt Q86U44). In words: Inhibition of METTL3/METTL14 (unknown origin) using biotinylated RNA (UCUGGACUAAA-biotin) and 3H-SAM as substrate preincubated for 5 mins followed by substrate addition and measured after 30 mins by scintillation counter analysis. Format: protein-complex assay.
Test [5] has as its system MOLM-13. As to the kind of experiment: Antiproliferative activity against human MOLM-13 cells assessed as inhibition of cell proliferation incubated for 48 hrs by Cell Titer-Glo reagent assay. The format is functional, cell-based. The conditions noted are these: MOLM-13, 48 h.
Test [6] addresses N6-adenosine-methyltransferase catalytic subunit (Homo sapiens, UniProt Q86U44). As to the kind of experiment: Inhibition of METTL3 in human MOLM-13 cells assessed as decrease in cellular m6A mRNA level incubated for 24 hrs by NanoDrop spectrophotometer based LC-MS/MS analysis. Format: cell-based.
In test [7] the target is T1, METTL3/METTL14. In words: Inhibition of METTL3/METTL14 (unknown origin) using RNA 5'-GGACUGGACUGGACU-3' as substrate incubated for 2 hrs by LC-MS/MS analysis. Format: protein-complex assay.
The test system of the next test is Kasumi 1. As to the kind of experiment: Antiproliferative activity against human Kasumi 1 cells assessed as inhibition of cell proliferation incubated for 120 hrs by CellTiter-Glo assay. The format is functional, cell-based. The conditions noted are these: Kasumi 1, 120 h.
Test [8] concerns Caov-3 cell line. In words: Antiproliferative activity against human Caov-3 cell line assessed as inhibition of cell proliferation incubated for 120 hrs by CellTiter-Glo assay. The format is functional, cell-based. To be noted: Caov-3, 120 h.
Test [9] has as its target METTL3/METTL14 (Homo sapiens) (UniProt Q86U44+Q9HCE5). In words: Inhibition of METTL3/METTL14 (unknown origin) at 60 uM relative to control. Format: protein-complex assay.
For test [10], the target named is T1, METTL3/METTL14. As to the kind of experiment: Inhibition of METTL3/METTL14 (unknown origin). Format: protein-complex assay.
Test [11] relates to MOLM-13. In words: Antiproliferative activity against human MOLM-13 cells assessed as decrease cell proliferation. The format is functional, cell-based.
Test [12] has as its target T1, METTL3/METTL14. As to the kind of experiment: Inhibition of full-length His-tagged METTL3/full length FLAG-tagged METTL14 (unknown origin) expressed in baculovirus expression system using synthetic RNA 5'P-uacacucgaucuggacuaaagcugcuc-3' and SAM as substrate preincubated for 10 mins followed by substrate addition and measured after 60 mins by RF/MS analysis.
The target in test [13] is T1, METTL3/METTL14. In words: Competive inhibition of full length human METTL3/METTL14 expressed in Sf9 cells using single strand RNA 5'-AAGAACCGGACUAAGCU-3' and SAM as substrate incubated for 40 mins by HTRF assay.

Consider `O=C(NCc1cn2cc(CNCC34CC(F)(C3)C4)ccc2n1)c1cc(=O)n2ccccc2n1`, for which the IC50 (usually the midpoint of a concentration-inhibition curve) stood at 657 nM with MOLM-13 [1] and 248 nM in the test with Caov-3 cell line [2].

As for `Cc1coc(-c2cn([C@@H]3O[C@H](COc4ccc5ccc(N6CCC6)nc5c4)[C@@H](O)[C@@H]3F)c3ncnc(N)c23)n1`, the IC50 is under 10000 nM in the test with MOLM-13 [3], under 10 nM against METTL3/METTL14 [4] and under 10000 nM in the test with MOLM-13 [5].

Take `Cn1ccc(-c2cn([C@H]3C[C@H](O)[C@@H](COc4ccc5ccc(N6CCC6)nc5c4)O3)c3ncnc(N)c23)n1`: the IC50 in the test on MOLM-13 [3] is under 10000 nM; in test [6], under 1000 nM; on METTL3/METTL14 [4] it was under 10 nM; with MOLM-13 [5], under 10000 nM.

Consider `O=C(O)[C@H]1O[C@@H](Oc2cc3oc(-c4ccc(O)cc4)cc(=O)c3c(O)c2O)[C@H](O)[C@@H](O)[C@@H]1O` [SCUTELLARIN], for which the IC50 against METTL3/METTL14 [7] came to 19200 nM.

As to `COc1cc(-c2cn(Cc3cn4cc(CNCC5CCC5)ccc4n3)nn2)c2cncn2c1`, the IC50 in the test on Kasumi 1 stood at 316 nM; with Caov-3 cell line [8], 103 nM.

As for `Nc1ncnc2c1c(Br)cn2[C@@H]1C[C@H](c2ccc3cc(CN4CCC5(CCC5)C4)[nH]c3c2)[C@@H](O)[C@H]1O` (single isomer, unassigned), the results for the half-inhibitory concentration (IC50) in the test on Kasumi 1 and in the test with Caov-3 cell line [8] were 950 nM and 250 nM, respectively.

On to `CC1=NN(c2ccc(C)c(C)c2)C(=O)/C1=N\Nc1cccc(-c2ccccc2)c1O`, for which, in test [9], the inhibition (in general, the percentage by which the read-out fell short of the control) turned out to be 23.3%.

Take `Nc1ncnc2c1c(-n1cccn1)cn2[C@@H]1O[C@H](COc2ccc3ccc(N4CCC4)nc3c2)[C@@H](O)[C@@H]1F`: the figures for the IC50 in the test with MOLM-13 [3], on METTL3/METTL14 [4] and with MOLM-13 [5] were under 10000 nM, under 10 nM and under 10000 nM, respectively.

In the case of `O=C(O)c1ccccc1OCCc1cn(-c2ccc(-c3ccccc3)cc2)c2ccc(-c3ccc(F)cc3)cc12`, the IC50 on METTL3/METTL14 [10] was 2950 nM. In the test on MOLM-13 [11], the concentration for a half-maximal effect (EC50) (in general, the midpoint of the concentration-response curve) is 32500 nM.

Regarding `Cn1ccc(-c2cn([C@@H]3O[C@H](COc4ccc5ccc(NC6CCC6)nc5c4)[C@@H](O)[C@@H]3F)c3ncnc(N)c23)n1`, the IC50 in the test on MOLM-13 [3] was under 10000 nM; in test [6] it was under 1000 nM; on METTL3/METTL14 [4], under 10 nM; in the test on MOLM-13 [5] it was under 10000 nM.

In the case of `CCc1cc(N(C)CCOC)c2ccc(CCc3cncc(-n4cc(-c5ccn(C)n5)c5c(N)ncnc54)c3)cc2n1`, the 50% inhibitory concentration (IC50) was under 10000 nM in the test with MOLM-13 [3], under 1000 nM in [6] and under 10 nM at METTL3/METTL14 [4].

With `COc1cc(-c2cn(Cc3cn4cc(CNCC56CC(F)(C5)C6)ccc4n3)nn2)c2cncn2c1`, the figures for the IC50 in the test on Kasumi 1 and in the test with Caov-3 cell line [8] were 1150 nM and 305 nM, respectively.

With `CNc1ccc2ccc(OCc3cncc(-n4cc([C@@H]5CCCO5)c5c(N)ncnc54)c3)cc2n1`, the figures for the IC50 (in the test on MOLM-13 [3]; in test [6]; against METTL3/METTL14 [4]) were under 10000 nM, under 1000 nM and under 10 nM, respectively.

With `Nc1ncnc2c1c(-n1cccn1)cn2[C@H]1C[C@H](O)[C@@H](COc2ccc3ccc(N4CCC4)nc3c2)O1`, the IC50 was under 10000 nM in the test with MOLM-13 [3], under 1000 nM in [6], under 10 nM against METTL3/METTL14 [4] and under 10000 nM in the test on MOLM-13 [5].

For the compound `COc1cc(-c2cn(Cc3cn4cc(CNCC5CCC5)ccc4n3)nn2)c2cn[nH]c2c1`, at METTL3/METTL14 [12], the midpoint of inhibition, the IC50, lay at 3.63 nM.

In turn, `COC(=O)c1cccc(-c2cccc(N/N=C3\C(=O)N(c4ccc(C)c(C)c4)N=C3C)c2O)c1` gave an inhibition in test [9] of 23.7%.

Compound `O=C(O)c1ccccc1OCCc1cn(-c2cccc(-c3ccccc3)c2)c2ccc(-c3ccc(F)cc3)cc12` showed an IC50 on METTL3/METTL14 [10] of 2740 nM. Besides, in the test on MOLM-13 [11], the EC50 came out at 29900 nM.

Compound `O=C(O)c1ccccc1OCCc1cn(C(c2ccccc2)c2ccccc2)c2ccc(Cl)cc12` yielded an IC50 at METTL3/METTL14 [10] of 13000 nM.

For `Nc1ncnc2c1ncn2C[C@H]1OC[C@@H](O)[C@@H](O)[C@H]1O`, the IC50 at METTL3/METTL14 [13] is over 250000 nM.

The values above are taken from ChEMBL document CHEMBL5338724, “METTL3 from Target Validation to the First Small-Molecule Inhibitors: A Medicinal Chemistry Journey” (J Med Chem, 2023).
